Calls of active or inactive are those of the source. No cut-off for these calls is given here.
Key:
[1] = system: Plasmodium falciparum; experiment: Antimalarial activity against CQ-sensitive Plasmodium falciparum 3D7 assessed as inhibition of parasite growth; format: functional, organism-based
[2] = system: Plasmodium falciparum; experiment: Antimalarial activity against CQ-resistant Plasmodium falciparum NF54-R assessed as inhibition of parasite growth; format: functional, organism-based
[3] = system: Plasmodium falciparum; experiment: Antimalarial activity against CQ-sensitive Plasmodium falciparum 3D7 infected in human erythrocytes after 48 hrs by SYBR Green1 dye based fluorescence assay; format: functional, organism-based; settings: 3D7, 48 h
[4] = system: Plasmodium falciparum; experiment: Antimalarial activity against CQ-sensitive Plasmodium falciparum 3D7 infected in human erythrocytes after 96 hrs by SYBR Green1 dye based fluorescence assay; format: functional, organism-based; settings: 3D7, 96 h
[5] = system: Plasmodium falciparum; experiment: Antimalarial activity against Plasmodium falciparum infected in human erythrocytes assessed as parasitemia at 1 to 15 uM after 96 hrs by SYBR Green1 dye based fluorescence assay; format: functional, organism-based
[6] = system: Plasmodium falciparum; experiment: Binding affinity to Gyrase in Plasmodium falciparum assessed as accumulation of single-stranded DNA binding protein at 15 uM after 96 hrs by Western blot analysis
[7] = system: Plasmodium falciparum; experiment: Antimalarial activity against Plasmodium falciparum infected in human erythrocytes assessed as parasitemia at 1 to 15 uM after 48 hrs by SYBR Green1 dye based fluorescence assay; format: functional, organism-based
[8] = system: Plasmodium falciparum; experiment: Antimalarial activity against CQ-resistant Plasmodium falciparum W2 infected in human erythrocytes after 96 hrs by SYBR Green1 dye based fluorescence assay; format: functional, organism-based; settings: W2, 96 h
[9] = system: Heme; experiment: Binding affinity to monomeric heme at 100 nM to 4.5 uM after 24 hrs by UV-Visible Spectroscopic analysis
[10] = system: Plasmodium falciparum; experiment: Antimalarial activity against CQ-resistant Plasmodium falciparum W2 infected in human erythrocytes after 48 hrs by SYBR Green1 dye based fluorescence assay; format: functional, organism-based; settings: W2, 48 h
[11] = system: Erythrocyte; experiment: Hemolytic activity against human RBC infected with CQ-sensitive Plasmodium falciparum 3D7 at 10 to 45 uM; format: ADME, cell-based
[12] = system: Plasmodium falciparum; experiment: Resistance index, ratio of IC50 for antimalarial activity against CQ-resistant Plasmodium falciparum W2 infected in human erythrocytes after 48 hrs to IC50 for antimalarial activity against CQ-sensitive Plasmodium falciparum 3D7 infected in human erythrocytes after 48 hrs by SYBR Green1 dye based fluorescence assay; format: functional
[13] = system: Plasmodium falciparum; experiment: Potency index, ratio of chloroquine IC50 to test compound IC50 for antimalarial activity against CQ-resistant Plasmodium falciparum W2 infected in human erythrocytes after 48 hrs by SYBR Green1 dye based fluorescence assay; format: functional
[14] = system: Plasmodium falciparum; experiment: Potency index, ratio of ciprofloxacin IC50 to test compound IC50 for antimalarial activity against CQ-resistant Plasmodium falciparum W2 infected in human erythrocytes after 48 hrs by SYBR Green1 dye based fluorescence assay; format: functional
[15] = Lipophilicity, log P of the compound; format: physicochemical; settings: octanol/water
[16] = system: Plasmodium falciparum; experiment: Potency index, ratio of ciprofloxacin IC50 to test compound IC50 for antimalarial activity against CQ-resistant Plasmodium falciparum W2 infected in human erythrocytes after 96 hrs by SYBR Green1 dye based fluorescence assay; format: functional
[17] = system: Erythrocyte; experiment: Hemolytic activity against human RBC infected with CQ-resistant Plasmodium falciparum W2 at 10 to 45 uM; format: ADME, cell-based
[18] = system: Plasmodium falciparum; experiment: Potency index, ratio of ciprofloxacin IC50 to test compound IC50 for antimalarial activity against CQ-sensitive Plasmodium falciparum 3D7 infected in human erythrocytes after 48 hrs by SYBR Green1 dye based fluorescence assay; format: functional
[19] = system: Plasmodium falciparum; experiment: Potency index, ratio of ciprofloxacin IC50 to test compound IC50 for antimalarial activity against CQ-sensitive Plasmodium falciparum 3D7 infected in human erythrocytes after 96 hrs by SYBR Green1 dye based fluorescence assay; format: functional
[20] = system: Erythrocyte; experiment: Hemolytic activity against uninfected human RBC at 10 to 45 uM; format: ADME, cell-based
[21] = system: Heme; experiment: Binding affinity to monomeric heme after 24 hrs by UV-Visible Spectroscopic analysis
[22] = system: Plasmodium falciparum; experiment: Antiplasmodial activity against Plasmodium falciparum infected in human erythrocytes assessed as reduction in hemozoin size at 30 nM after 48 hrs by giemsa staining based light microscopic analysis; format: functional, organism-based
[23] = system: Escherichia coli; experiment: Toxicity in Escherichia coli DH10B assessed as growth inhibition at 500 nM to 1 uM after 6 hrs; format: organism-based, str. K-12 substr. DH10B; settings: in vivo, 0.5 µM
[24] = system: Plasmodium falciparum; experiment: Antiplasmodial activity against Plasmodium falciparum infected in human erythrocytes assessed as reduction in hemozoin size at 50 to 100 nM after 48 hrs by giemsa staining based light microscopic analysis; format: functional, organism-based
[25] = system: Plasmodium falciparum; experiment: Antimalarial activity against Plasmodium falciparum infected in human erythrocytes assessed as parasitemia at 1 to 10 nM after 96 hrs by SYBR Green1 dye based fluorescence assay; format: functional, organism-based
[26] = system: NIH3T3; experiment: Cytotoxicity against mouse NIH/3T3 cells up to 10 uM after 72 hrs by MTT assay; format: cell-based; settings: nih3t3, 72 h
[27] = system: Plasmodium falciparum; experiment: Antimalarial activity against Plasmodium falciparum infected in human erythrocytes assessed as parasitemia at 1 to 10 nM after 48 hrs by SYBR Green1 dye based fluorescence assay; format: functional, organism-based
[28] = system: Plasmodium falciparum; experiment: Antimalarial activity against synchronized schizont stage of Plasmodium falciparum infected in human erythrocytes at 50 to 100 nM; format: functional, organism-based
[29] = system: Plasmodium falciparum; experiment: Antimalarial activity against synchronized ring stage of Plasmodium falciparum infected in human erythrocytes at 50 to 100 nM; format: functional, organism-based
[30] = system: Plasmodium falciparum; experiment: Binding affinity to Gyrase in Plasmodium falciparum assessed as accumulation of single-stranded DNA binding protein at 25 nM after 96 hrs by Western blot analysis

Row | Structure (SMILES) | IC50 [1] | IC50 [2] | IC50 [3] | IC50 [4] | IC50 [8] | IC50 [10] | Activity [11] | logP [15] | Activity [17] | Activity [20] | also measured
1 | COc1c(N2C[C@@H]3CCCN[C@@H]3C2)c(F)cc2c(=O)c(C(=O)O)cn(C3CC3)c12 [MOXIFLOXACIN] | > 10 µM | > 10 µM |  |  |  |  |  |  |  |  | 
2 | O=C(O)c1cn(C2CC2)c2cc(N3CCNCC3)c(F)cc2c1=O [CIPROFLOXACIN] |  |  | 45.4 µM | 26.3 µM | 22.9 µM | 37.1 µM |  |  |  |  | Activity [5]: Active; Activity [6]: Active; Activity [7]: inactive; Activity [9]: inactive
3 | CCOC(=O)c1cn(C2CC2)c2cc(N3CCN(S(=O)(=O)c4ccc(C(F)(F)F)cc4)CC3)c(F)cc2c1=O |  |  | 0.0376 µM | 0.0148 µM | 0.0334 µM | 0.146 µM | Non-Toxic | 4.29 | Non-Toxic | Non-Toxic | Ratio IC50 [12]: 3.88; Ratio IC50 [13]: 7; Ratio IC50 [14]: 200 - 700; Ratio IC50 [16]: 200 - 700; Ratio IC50 [18]: 1000; Ratio IC50 [19]: 1000
4 | CCN(CC)CCCC(C)Nc1ccnc2cc(Cl)ccc12 (stereo not given) |  |  |  |  |  |  |  |  |  |  | Activity [21]: Dose-dependent effect; Activity [22]: Active
5 | CCOC(=O)c1cn(C2CC2)c2cc(N3CCN(c4c5ccc(Cl)cc5nc5ccc(OC)cc45)CC3)c(F)cc2c1=O |  |  | 0.359 µM | 0.311 µM |  |  | Non-Toxic | 6.31 | Non-Toxic | Non-Toxic | 
6 | CCOC(=O)c1cn(C2CC2)c2cc(N3CCN(c4ccnc5cc(Cl)ccc45)CC3)c(F)cc2c1=O |  |  | 0.0255 µM | 0.0135 µM | 0.0306 µM | 0.0632 µM | Non-Toxic | 5.02 | Non-Toxic | Non-Toxic | Ratio IC50 [12]: 2.47; Ratio IC50 [13]: 3; Ratio IC50 [14]: 200 - 700; Activity [23]: Non-Toxic; Activity [24]: inactive; Activity [25]: Active; Ratio IC50 [16]: 200 - 700; Activity [26]: Non-Toxic; Ratio IC50 [18]: 1000; Activity [27]: Active; Ratio IC50 [19]: 1000; Activity [28]: Active; Activity [9]: inactive; Activity [29]: Active; Activity [30]: inactive
7 | Cc1c(F)c(N2CCNC(C)C2)cc2c1c(=O)c(C(=O)O)cn2C1CC1 (stereo not given) [GREPAFLOXACIN] | > 10 µM | > 10 µM |  |  |  |  |  |  |  |  | 
8 | CCOC(=O)c1cn(C2CC2)c2cc(N3CCN(C(=O)/C=C/c4ccccc4)CC3)c(F)cc2c1=O |  |  | 9.11 µM | 4.79 µM |  |  | Non-Toxic | 3.81 | Non-Toxic | Non-Toxic | 
9 | COc1c(N2CCNC(C)C2)c(F)cc2c(=O)c(C(=O)O)cn(C3CC3)c12 (stereo not given) [GATIFLOXACIN] | > 10 µM | > 10 µM |  |  |  |  |  |  |  |  | 
